In PubChem BioAssay AID1241 (SRMLSC, 2008):
pEC50: −log10 of the molar value.

Assay: NF-kB promoter reporter activators, neuronal cells, dose response, cell-based, SH-SY5Y, luciferase (AID 1241)
Conditions: fold induction

SMILES	pEC50
O=C(Nc1nc2ccccc2s1)NC1CCCCC1	5.62
CN1CCN(Cn2cc(/C=C/C(=O)c3ccccc3)c3ccccc32)CC1	5.44
CC(=O)CSc1nc2cc3c(cc2cc1C#N)OCCO3	6.98
O=C(O)c1ccc(N/N=C/c2cn(-c3ccccc3)nc2-c2cccs2)cc1	5.77
O=C(Nc1nc2ccccc2[nH]1)c1cc2ccccc2o1	5.91
O=C(/C=C/Nc1ccccc1F)c1ccc(Br)cc1	6.23
CN=c1scc(C)n1/N=C/c1ccc(O)cc1	4.81
O=C(NCc1ccco1)c1ccc([N+](=O)[O-])o1	5.16
COc1ccc2nc(Nc3ccccc3)sc2c1	4.95
CC(C)Oc1cccc(C(=O)Nc2ccc(Br)cc2F)c1	5.61
Cc1c(-c2nc(N)nc(Nc3ccccc3F)n2)oc2ccccc12	5.69
O=C(CSc1cccc[n+]1[O-])c1cc(Cl)ccc1Cl	5.71
Cc1ccc(C(=O)Nc2nnc(SCC(=O)N3CCCc4ccccc43)s2)cc1	5.78
CCCc1cc(C(=O)Nc2nccs2)cs1	5.58
COc1ccc(-c2csc(NCc3ccco3)n2)cc1	5.43
Brc1ccccc1/C=N/Nc1ccc2ccccc2n1	5.26
Cc1ccnc(NC(=O)/C=C/c2ccccc2[N+](=O)[O-])c1	6.25
Cc1ccc(NC(=S)N2CCC(c3ccccc3)C2)c(Cl)c1 (centres undefined)	5.75
O=C(Nc1ccc(Cl)c(Cl)c1)Nc1ccccc1C(=O)O	5.78
O=C(/C=C/Nc1ccc(F)c(F)c1)c1cccs1	6.02
Cn1c(C(=O)Nc2ccc3c(c2)OCO3)cc2sccc21	5.28
Clc1cccc(-c2nnc(-c3ccccc3)o2)c1	5.78
Fc1ccccc1/C=C/c1ccc2ccccc2n1	6.50

SMILES	pEC50
Nc1nn(-c2cccc(F)n2)cc1-c1ccc(Cl)cc1	6.17
Nc1ccccc1C(=O)OCCOc1ccccc1	6.04
Cc1ccc(/C=C/C(=O)NC2=NCCS2)cc1	5.36
Cn1c(-c2ccco2)nc2cc3ccccc3cc21	6.09
Cc1cccc(-n2ncc3c(NC4CCCCC4)ncnc32)c1	5.63
COc1ccc(-c2ccc3ccccc3n2)cc1	6.19
O=C(Nc1ccc2c(c1)OCCO2)c1ccc2ccccc2n1	5.84
COc1cc(SC)ccc1C(=O)Nc1ccc2c(c1)OCO2	5.89
Cn1cccc1/C=C1\CCC/C(=C\c2cccn2C)C1=O	5.06
Cc1ccc2nc(-c3ccc(NC(=O)CCN4C(=O)c5ccccc5C4=O)cc3)sc2c1	6.81
O=C(Nc1ccc(F)cc1)/C(Cl)=C/c1ccccc1	4.63
Cc1ccsc1/C=C1\CCC(C2CCCC2)C1=O (centres undefined)	5.23
CC(C)Oc1cc(O)c2c(=O)c(-c3ccc(O)cc3)coc2c1	5.34
CC(C)c1cc(C(=O)Nc2cccc(Cl)c2)no1	5.62
Fc1ccc(-c2cn3cc(C(F)(F)F)cc(Cl)c3n2)cc1	5.35
CCOC(=O)c1sc(NC(=O)Nc2ccc(F)cc2)nc1C	5.57
O=c1oc2ccccc2cc1-c1nnc(NCc2ccco2)s1	5.88
Cc1ccc(N=Cc2sc(O)c3ccccc23)cc1	5.76
Oc1ccc(F)cc1-c1cc(-c2ccc3c(c2)OCCO3)n[nH]1	6.00
CCCCn1cnc2sc(-c3ccccc3)cc2c1=O	4.92
Cc1c(C(=O)NC2=NCCS2)oc2ccccc12	5.99
Cc1ccc(-c2nc3cc(Cl)ccc3o2)cc1	5.76
Oc1ccc(CN2CCN(Cc3ccccc3)CC2)c2cccnc12	5.28

SMILES	pEC50
CC(C)(C)C(=O)Nc1nc(-c2ccc3c(c2)OCO3)cs1	5.57
CCOC(=O)Cc1ccc2sc(-c3ccccc3)nc2c1	5.19
COc1ccc(Cn2c(C3CC3)nc3ccc(NC(=O)C4CC4)cc3c2=O)cc1	5.89
COc1ccc(C(=O)/C=C/c2cn(CN3CCN(C)CC3)c3ccccc23)cc1	5.99
COC(=O)c1ccc(-c2nc3ccccc3[nH]2)cc1	6.02
COc1cccc(/C=N/Nc2nccnc2Cl)c1O	5.66
CCS/C(N)=N/N=C/c1cc(C)ccc1O	5.48
CSc1ccc(/C=N/Nc2ccc(Cl)c(C(=O)O)c2)cc1	5.23
Nc1ccc(-c2nc3cc(N)ccc3s2)cc1	5.96
COc1ccccc1N1CCN(c2ccc(-c3ccccc3)nn2)CC1	6.14
Nc1nc(-c2ccccc2)nc2sc3c(c12)CCCC3	6.06
Cc1ccc(-c2noc(-c3ccccc3Br)n2)cc1	5.74
C/C(=N\NC(=O)c1ccc(Br)cc1)c1ccccc1	4.63
Cc1ccc(N/C=C(/C#N)c2ccsc2)cc1C	5.16
Cc1ccc(NC(=O)/C(Cl)=C/c2ccccc2)cc1C	5.53
S=C(c1ccc(-c2ccc(Cl)c(Cl)c2)o1)N1CCOCC1	5.29
Cc1ccc(-c2nnc(-c3cccs3)o2)cc1	5.55
Fc1ccccc1Cn1nnc(-c2ccc3c(c2)OCO3)n1	5.07
Cc1ccc(OCCSc2ncccn2)c(C)c1	5.27
Cc1ccc(N/N=C(\C#N)C(=N)N2CCCCCC2)cc1	5.73
CCOC(=O)c1sc(=NC(=O)c2ccccc2)n(C)c1C	5.65
Cc1ccn2cc(-c3cc4ccccc4oc3=O)nc2c1	6.86
CCCCCCCOc1ccc(OC(=O)c2cccnc2)cc1	6.79

SMILES	pEC50
CC1CC1C(=O)OCC(=O)Nc1ccc(N=Nc2ccccc2)cc1 (centres undefined)	4.81
CC(C)c1ccc(OCc2nc(-c3ccccn3)no2)c(Br)c1	5.99
O=C(/C=C/Nc1ccc(F)c(F)c1)c1ccc(Br)cc1	5.41
Cc1noc(/C=C/Nc2ccc(F)cc2F)c1[N+](=O)[O-]	5.63
COc1cccc2sc(N(C)c3ccccc3)nc12	5.57
Cc1ccc(-c2noc(-c3ccccc3F)n2)cc1	5.17
COc1ccc(/C=C2\SC(=O)N(CCNC(=O)C3CC4C=CC3C4)C2=O)cc1 (centres undefined)	5.38
c1ccc(Nc2nc(-c3ccncc3)cs2)nc1	5.78
CCOC(=O)c1cnc(Nc2nc3ccccc3o2)nc1CSC(=S)N(CC)CC	5.63
CCN(CC)c1ccc(NC(=O)c2ccco2)cc1	5.60
c1cnc(SCCOc2ccc3c(c2)CCC3)nc1	5.06
CN(C)c1ccc(/C=N/NC(=O)c2ccco2)cc1	4.74
O=C(/C=C\Nc1cccc(F)c1)c1cccs1	6.46
Cc1ccc2nc(-c3ccc(NC(=O)COC(=O)c4ccc(=O)[nH]c4)cc3)sc2c1	6.18
Fc1ccccc1N1CCN(c2cnc3ccccc3n2)CC1	5.48
COc1ccccc1Oc1ccc(N/C=C/C(=O)c2ccco2)cc1	5.15
Cc1ccc(OCc2nc(-c3cccs3)no2)c([N+](=O)[O-])c1	6.11
CCOC(=O)c1sc(NC(=O)Nc2ccccc2)cc1C	6.12
Cc1csc(NC(=O)c2ccc(C)c([N+](=O)[O-])c2)n1	5.67
O=C(Nc1ccc2c(c1)OCO2)c1ccc(Br)s1	5.37
COc1ccc(-c2cc(=O)c3cc(OC)ccc3o2)cc1	5.41
CCC(=O)Nc1ccc2oc(-c3ccccc3Br)nc2c1	5.58
COc1ccc2nc(-c3ccccc3)[nH]c2c1	5.88

SMILES	pEC50
CN(C)c1ccc(/C=c2\sc3n(c2=O)CCCN=3)cc1	4.93
CCOc1ccc(NC(=O)c2ccco2)c([N+](=O)[O-])c1	4.72
N#C/C(=C\c1ccc(OCc2ccc(C(=O)O)cc2)cc1)C(=O)N1CCOCC1	4.92
Nc1ccc(/C=C/C(=O)c2cccs2)cc1	5.06
CN(C)c1ccc(-c2nnc(-c3cccs3)o2)cc1	5.65
O=C(/C=C/c1ccc(Cl)cc1Cl)Nc1cccc(S(=O)(=O)NC2=NCCC2)c1	5.88
COc1ccc(Nc2nc3ccccc3s2)cc1	4.69
COc1cc(/C=C(/C(=O)c2cccs2)c2nc3ccccc3[nH]2)cc(OC)c1O	5.11
CC(C)CC(=O)N/C(N)=N/c1nc2ccccc2s1	6.12
COCCOCCn1c(/C=C/c2ccccc2)nc2ccccc21	5.24
Fc1ccc(-c2cnn3c(-c4ccncc4)ccnc23)cc1	5.91
c1ccc(CSCc2cn3ccsc3n2)cc1	4.90
Cc1c(C(=O)Nc2nc3ccccc3[nH]2)oc2ccccc12	5.86
COc1cccc(-c2cc(C(=O)N3CCCCCC3)no2)c1	5.70
O=C1CCOc2cc(OCc3ccccc3)ccc21	6.08
O=C(CSC(=S)N1CCSCC1)c1ccccc1	5.46
Cc1ccc(-c2noc(-c3cccs3)n2)cc1	5.64
CCOC(=O)c1nn(-c2ccc(Br)cc2)cc1C(=O)c1cccc2ccccc12	5.52
COc1ccc(-c2cn3c4c(sc3n2)CCCC4)cc1	6.19
Oc1ccccc1-c1cc(-c2ccccc2)no1	5.75
O=C(/C=C/c1ccco1)N1CCc2ccccc21	5.98
N#C/C(=C/c1ccco1)c1nc2ccccc2s1	5.71
CC(=O)Nc1cccc(-c2csc(Nc3ccc(C)cn3)n2)c1	6.15

SMILES	pEC50
Cc1cccc(NC(=O)c2cnc3sccn3c2=O)c1	6.00
CN(C)S(=O)(=O)Oc1cccc(C(=O)Nc2ccc(Cl)cc2)c1	5.06
Cc1ccc(NC(=O)c2cc3c(s2)CCCC3)cc1	4.98
Oc1cccc(-c2nc3ccccc3s2)c1	5.39
CCOC(=O)c1sc2nc(-c3cccnc3)ccc2c1N	5.87
O=Cc1cn(-c2ccccc2)nc1-c1ccc2c(c1)OCCO2	5.19
COc1ccc(/C=C/c2nc3ccccc3n2Cc2ccc(OC)c(OC)c2)cc1	6.03
CCOC(=O)c1c(N)sc(C(=O)Nc2ccccc2)c1C	5.71
COCC(=O)Nc1nnc(-c2ccc(C(C)(C)C)cc2)s1	4.96
C=CCNc1ncnc2c1cnn2-c1ccc(Cl)cc1	5.74
N#Cc1cccc(NCC(=O)Nc2ccc3c(c2)OCCO3)c1	5.18
O=C1c2ccccc2NC(c2cnc3ccccc3n2)N1O (centres undefined)	6.04
COc1ccc(N=Cc2sc(O)c3ccccc23)cc1	6.00
Nc1nc2ccc(-c3nc4ccccc4o3)cc2s1	5.86
Fc1ccc(-c2cnn3c(-c4cccs4)ccnc23)cc1	6.27
CC1CCN(c2nc3ccc(C(=O)O)cc3s2)CC1	6.41
CC(/C=N/NC(=O)c1cccs1)=C\c1ccccc1	5.64
CCc1ccc(C(=O)COC(=O)c2n[nH]c3ccccc23)cc1	5.60
CCCOc1ccc(C(=O)Nc2ccc(Cl)cn2)cc1	5.96
